According to ChEMBL document CHEMBL4052802, “Design, synthesis and biological evaluation of novel 3-oxo-4-oxa-5α-androst-17β-amide derivatives as dual 5α-reductase inhibitors and androgen receptor antagonists” (Bioorg Med Chem Lett, 2017):

Key:
LNCaP = assay: Growth inhibition of human LNCAP cells at 80 uM after 48 hrs by MTT assay relative to control; type: functional; details: read-out: GI
Rattus norvegicus = species on record: Rattus norvegicus; assay: Inhibition of rat liver 5alpha-reductase at 50 uM using testosterone as substrate incubated for 30 mins measured for 10 mins by fluorescence assay relative to control
PC-3 [1] = assay: Growth inhibition of human PC3 cells at 80 uM after 48 hrs by MTT assay relative to control; type: functional; details: PC-3, 48 h, read-out: GI
[2] = molecular target: Androgen receptor (Homo sapiens) (UniProt P10275); assay: Inhibition of recombinant human His-tagged/GST-fused androgen receptor LBD expressed in baculovirus expression system at 50 uM measured after 1.5 hrs by fluorescence polarization assay relative to control
PC-3 [3] = assay: Cytotoxicity against human PC3 cells after 48 hrs by MTT assay; type: functional, cell-based; details: PC-3, 48 h
[4] = molecular target: T1, 3-oxo-5-alpha-steroid 4-dehydrogenase 2 (Homo sapiens, UniProt P31213); assay: Inhibition of recombinant human 5alpha-reductase type2 expressed in baculovirus expression system using [7-3H]T as substrate pretreated for 18 hrs followed by substrate addition by reverse-phase HPLC method
T1 sequence (P31213 whole entry): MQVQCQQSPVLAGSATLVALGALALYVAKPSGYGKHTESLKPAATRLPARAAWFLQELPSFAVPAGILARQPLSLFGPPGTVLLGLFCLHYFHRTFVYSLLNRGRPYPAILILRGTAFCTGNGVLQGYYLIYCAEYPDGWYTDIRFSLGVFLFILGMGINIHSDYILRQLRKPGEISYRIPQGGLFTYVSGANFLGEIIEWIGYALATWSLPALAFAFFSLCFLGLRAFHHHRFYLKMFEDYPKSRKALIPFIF

[5] = molecular target: T2, 3-oxo-5-alpha-steroid 4-dehydrogenase 1 (Homo sapiens, UniProt P18405); assay: Inhibition of recombinant human 5alpha-reductase type1 expressed in baculovirus expression system using [7-3H]T as substrate pretreated for 18 hrs followed by substrate addition measured after 90 mins by reverse-phase HPLC method
T2 sequence (P18405 whole entry): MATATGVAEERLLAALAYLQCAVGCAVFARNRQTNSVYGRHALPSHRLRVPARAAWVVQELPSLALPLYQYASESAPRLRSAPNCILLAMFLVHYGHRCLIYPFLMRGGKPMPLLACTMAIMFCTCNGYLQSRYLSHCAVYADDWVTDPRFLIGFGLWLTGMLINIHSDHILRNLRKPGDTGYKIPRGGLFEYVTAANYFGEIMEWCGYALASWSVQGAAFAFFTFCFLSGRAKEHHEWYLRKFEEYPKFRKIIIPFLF

Androgen receptor [6] = molecular target: T3, Androgen receptor (Homo sapiens, UniProt P10275); assay: Displacement of [3H]-DHT from recombinant human androgen receptor expressed in CHO cells; type: cell-based
T3 sequence (P10275 whole entry): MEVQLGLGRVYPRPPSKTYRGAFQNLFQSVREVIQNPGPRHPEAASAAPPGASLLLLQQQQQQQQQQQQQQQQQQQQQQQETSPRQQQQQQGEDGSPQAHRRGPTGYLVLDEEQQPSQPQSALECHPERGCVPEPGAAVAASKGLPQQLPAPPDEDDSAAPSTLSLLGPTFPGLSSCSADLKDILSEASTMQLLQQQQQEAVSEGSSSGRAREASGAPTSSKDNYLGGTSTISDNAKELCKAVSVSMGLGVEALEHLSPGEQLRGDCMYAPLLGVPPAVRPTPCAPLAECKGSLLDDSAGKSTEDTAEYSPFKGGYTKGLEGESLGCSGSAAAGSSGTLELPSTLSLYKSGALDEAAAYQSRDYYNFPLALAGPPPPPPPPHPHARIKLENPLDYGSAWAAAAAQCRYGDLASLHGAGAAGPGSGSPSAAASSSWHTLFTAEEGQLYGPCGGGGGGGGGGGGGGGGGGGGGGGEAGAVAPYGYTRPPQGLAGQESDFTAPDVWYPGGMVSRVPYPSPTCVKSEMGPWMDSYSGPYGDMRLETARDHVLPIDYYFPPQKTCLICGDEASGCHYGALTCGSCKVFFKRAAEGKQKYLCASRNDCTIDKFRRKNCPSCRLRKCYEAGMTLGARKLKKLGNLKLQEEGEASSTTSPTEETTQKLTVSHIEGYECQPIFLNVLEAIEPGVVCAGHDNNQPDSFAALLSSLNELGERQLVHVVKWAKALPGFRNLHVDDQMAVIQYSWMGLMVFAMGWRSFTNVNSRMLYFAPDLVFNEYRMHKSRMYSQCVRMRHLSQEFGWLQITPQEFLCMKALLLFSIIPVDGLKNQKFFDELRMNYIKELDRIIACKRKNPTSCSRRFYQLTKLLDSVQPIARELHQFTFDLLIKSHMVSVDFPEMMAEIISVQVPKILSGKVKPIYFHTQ

[7] = Inhibition of rat liver 5alpha-reductase using testosterone as substrate incubated for 30 mins measured for 10 mins by fluorescence assay
Androgen receptor [8] = molecular target: T4, Androgen receptor (Rattus norvegicus, UniProt P15207); assay: Displacement of fluormone-AL Green from recombinant rat His-tagged/GST-fused androgen receptor LBD expressed in baculovirus expression system measured after 1.5 hrs by fluorescence polarization assay
T4 sequence (P15207 whole entry): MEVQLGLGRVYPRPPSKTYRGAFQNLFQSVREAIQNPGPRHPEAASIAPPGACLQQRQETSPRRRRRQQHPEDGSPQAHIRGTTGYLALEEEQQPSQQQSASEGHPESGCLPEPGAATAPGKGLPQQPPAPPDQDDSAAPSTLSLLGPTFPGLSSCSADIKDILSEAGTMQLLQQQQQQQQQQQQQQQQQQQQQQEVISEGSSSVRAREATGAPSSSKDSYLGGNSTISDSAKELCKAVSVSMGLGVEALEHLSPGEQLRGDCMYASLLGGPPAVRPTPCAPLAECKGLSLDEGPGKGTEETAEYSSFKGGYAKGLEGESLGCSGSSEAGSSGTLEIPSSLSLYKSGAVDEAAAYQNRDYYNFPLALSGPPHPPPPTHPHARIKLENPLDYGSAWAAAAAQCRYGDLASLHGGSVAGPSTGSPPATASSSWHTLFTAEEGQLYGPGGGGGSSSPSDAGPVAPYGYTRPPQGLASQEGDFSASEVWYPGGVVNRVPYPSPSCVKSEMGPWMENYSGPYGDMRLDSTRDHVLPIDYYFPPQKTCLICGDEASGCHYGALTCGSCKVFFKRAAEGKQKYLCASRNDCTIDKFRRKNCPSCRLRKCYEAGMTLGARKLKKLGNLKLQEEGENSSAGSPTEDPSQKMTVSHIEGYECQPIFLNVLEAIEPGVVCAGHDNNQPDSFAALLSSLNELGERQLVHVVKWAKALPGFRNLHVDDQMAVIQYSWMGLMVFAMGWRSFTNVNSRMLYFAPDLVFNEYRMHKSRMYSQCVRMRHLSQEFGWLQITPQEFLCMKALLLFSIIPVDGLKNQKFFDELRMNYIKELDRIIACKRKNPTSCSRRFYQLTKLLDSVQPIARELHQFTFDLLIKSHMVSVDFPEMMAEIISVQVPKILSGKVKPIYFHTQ

Row | SMILES | inhibition of growth at 80 µM (LNCaP) [%] | inhibition (Rattus norvegicus) [%] | inhibition of growth at 80 µM (PC-3 [1]) [%] | inhibition [2] [%] | IC50 (PC-3 [3]) [µM] | IC50 [4] [µM] | IC50 [5] [µM] | IC50 (Androgen receptor [6]) [µM] | IC50 [7] [µM] | IC50 (Androgen receptor [8]) [µM]
1 | CC(C)(C)NC(=O)[C@H]1CC[C@H]2[C@@H]3CC[C@H]4OC(=O)CC[C@]4(C)[C@H]3CC[C@]12C | 37.3 | 48.3 | 28.1 | 3.73 | 70.1 |  |  |  |  | 
2 | C[C@]12CCC(=O)O[C@@H]1CC[C@@H]1[C@@H]2CC[C@]2(C)[C@@H](C(=O)N(c3ccccc3)c3ccccc3)CC[C@@H]12 | 31.4 | 15.5 | 35.4 | 3.29 | 75.2 |  |  |  |  | 
3 | C[C@]12CCC(=O)N[C@@H]1CC[C@@H]1[C@@H]2CC[C@]2(C)[C@@H](C(=O)Nc3ccccc3)CC[C@@H]12 |  |  |  |  |  | 0.015 | 0.41 | 23 |  | 
4 | CN(C(=O)[C@H]1CC[C@H]2[C@@H]3CC[C@H]4OC(=O)CC[C@]4(C)[C@H]3CC[C@]12C)c1ccccc1 | 30 | 84.2 | 35.1 | 14.3 | 62.2 |  |  |  | 0.89 | 
5 | CCN(CC)C(=O)[C@H]1CC[C@H]2[C@@H]3CC[C@H]4OC(=O)CC[C@]4(C)[C@H]3CC[C@]12C | 42.7 | 39.5 | 27.9 | 33.7 | 68.2 |  |  |  |  | 
6 | C[C@H]1CC(=O)C[C@@H]2CC[C@H]3[C@@H]4CC[C@H](O)[C@@]4(C)CC[C@@H]3[C@]21C [MESTEROLONE] |  |  |  |  |  |  |  |  |  | 18.3
7 | C[C@]12CCC(=O)O[C@@H]1CC[C@@H]1[C@@H]2CC[C@]2(C)[C@@H](C(=O)Nc3ccccc3)CC[C@@H]12 | 24.2 | 67.3 | 31.7 | 7.09 | 86.2 |  |  |  |  | 
